Results taken from patent US20250353849A1, “PURINE COMPOUNDS FOR TREATING DISORDERS” (MARVEL BIOTECHNOLOGY, priority 2021, published 2025).
pIC50: −log10 of the molar value. Read-outs that look alike come from different tables or passages of the source.

Tests used:
[1] = molecular target: T1, ADORA2A (Homo sapiens, UniProt P29274); assay: GPCR screening, Calcium Flux (calcium mobilization), Antagonist format; assay type: cell-based; conditions: for Emax: read-out: Max Response
Experimental: (§1) Cell lines were expanded from freezer stocks according to standard procedures. Cells were seeded in a total volume of 20 μL into black-walled, clear-bottom, Poly-D-lysine coated 384-well microplates and incubated at 37° C. for the appropriate time prior to testing.
(§2) Assays were performed in 1×Dye Loading Buffer consisting of 1×Dye, 1×Additive A and 2.5 mM Probenecid in HBSS/20 mM Hepes. Probenicid was prepared fresh. Cells were loaded with dye prior to testing. Media was aspirated from cells and replaced with 20 μL Dye Loading Buffer. Cells were incubated for 30-60 minutes at 37° C.
For antagonist determination, cells were pre-incubated with sample followed by agonist challenge at the EC80 concentration. Intermediate dilution of sample stocks was performed to generate 3X sample in assay buffer. After dye loading, cells were removed from the incubator and 10 μL 3X sample was added. Cells were incubated for 30 minutes at room temperature in the dark to equilibrate plate temperature. Vehicle concentration was 1%.
Compound antagonist activity was measured on a FLIPR Tetra (MDS). Calcium mobilization was monitored for 2 minutes and 10 μL EC80 agonist in HBSS/20 mM Hepes was added to the cells 5 seconds into the assay.
For antagonist and negative allosteric modulation mode assays, percentage inhibition is calculated using the following formula: […]
(§3) When the calcium was released, the fluorescence of the dye was increased and the increase was measured in real-time.
FIGS. 1 and 2 show percent reacted (Y) versus concentration in μM (X). Compounds were tested in antagonist mode with the requested GPCR Biosensor Assay. For the antagonist assay, data was normalized to the maximal and minimal response observed in the presence of EC80 ligand and vehicle.

[2] = molecular target: T1, ADORA2A; assay: GPCR screening, Calcium Flux (calcium mobilization), Agonist format; assay type: cell-based; conditions: read-out: Max Response
Experimental: as §1, §2
For agonist determination, cells were incubated with sample to induce response. […] Cells were incubated for 30 minutes at room temperature in the dark to equilibrate plate temperature.
Compound activity was analyzed using CBIS data analysis suite (ChemInnovation, CA).
as §3

[3] = Calcium Flux, Antagonist format
[4] = Calcium Flux, Antagonist format, EC80 0.021 μM NECA, read-out: RC50 (Result Type IC50)
[5] = antagonist mode, text to FIGS. 1 and 2, EC80 0.021 μM NECA, read-out: half maximal inhibitory concentration (IC50)

T1 sequence (P29274 whole entry): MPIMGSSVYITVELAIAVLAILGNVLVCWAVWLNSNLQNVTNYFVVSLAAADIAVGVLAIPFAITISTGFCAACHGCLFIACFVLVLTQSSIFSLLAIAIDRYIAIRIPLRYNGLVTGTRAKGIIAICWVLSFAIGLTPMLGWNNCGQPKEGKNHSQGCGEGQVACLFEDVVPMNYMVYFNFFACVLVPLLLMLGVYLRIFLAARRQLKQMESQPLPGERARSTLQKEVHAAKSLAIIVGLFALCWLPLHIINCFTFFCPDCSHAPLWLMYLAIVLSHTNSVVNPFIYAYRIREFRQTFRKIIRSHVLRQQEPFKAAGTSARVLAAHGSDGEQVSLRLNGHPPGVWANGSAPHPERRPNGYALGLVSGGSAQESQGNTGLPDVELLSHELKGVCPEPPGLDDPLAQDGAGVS

Row | Curve Bottom [1, 3] | Curve Top [1, 3] | Hill [1, 3] | pIC50 [1, 4] | Emax [1, 3] [%] | pIC50 [1, 5] | Emax [2] [%] | SMILES
1 | −.090144 | 99.922 | 1.3438 | 7.02 | 99.7 | 7.02 | 0 | CCn1c(=O)c2c(nc(/C=C/c3ccc(OCF)c(OC)c3)n2C)n(CC)c1=O [Compound 9, (E)-1,3-diethyl-8-(4-(fluoromethoxy)-3-methoxystyryl)-7-methyl-3,7-dihydro-1H-purine-2,6-dione]
2 | 7.8668 | 99.957 | 1.7211 | 6.76 | 99.1 | 6.76 | 0 | CCn1c(=O)c2c(nc(/C=C/c3ccc(OC)c(OCF)c3)n2C)n(CC)c1=O [Compound 8, (E)-1,3-diethyl-8-(3-(fluoromethoxy)-4-methoxystyryl)-7-methyl-3,7-dihydro-1H-purine-2,6-dione]
